Reference: ChEMBL document CHEMBL1127353, “Nonpeptidic inhibitors of human leukocyte elastase. 2. Design, synthesis, and in vitro activity of a series of 3-amino-6-arylopyridin-2-one trifluoromethyl ketones” (J Med Chem, 1994)

Target: T1, Neutrophil elastase (Homo sapiens, UniProt P08246)
T1 sequence (P08246 whole entry): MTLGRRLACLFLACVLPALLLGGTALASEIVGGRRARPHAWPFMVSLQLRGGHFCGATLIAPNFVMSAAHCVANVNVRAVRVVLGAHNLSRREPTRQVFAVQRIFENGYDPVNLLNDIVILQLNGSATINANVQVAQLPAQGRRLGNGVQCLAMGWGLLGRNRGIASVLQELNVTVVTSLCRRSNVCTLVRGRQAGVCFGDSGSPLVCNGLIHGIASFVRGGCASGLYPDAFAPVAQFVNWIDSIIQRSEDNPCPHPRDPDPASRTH
Assay: Tested for inhibitory activity against human leukocyte elastase(HLE) enzyme

Row | SMILES | Ki
1 | CC(C)C(NC(=O)Cn1c(Cc2ccccc2)ccc(NC(=O)OCc2ccccc2)c1=O)C(=O)C(F)(F)F (stereo not drawn) | 66 nM
2 | CC(C)C(NC(=O)Cn1c(-c2cccc(OC(C)(C)C)c2)ccc(NC(=O)OCc2ccccc2)c1=O)C(=O)C(F)(F)F (stereo not drawn) | 4.4 nM
3 | CC(C)C(NC(=O)Cn1c(-c2ccc(Cl)cc2)ccc(NC(=O)OCc2ccccc2)c1=O)C(=O)C(F)(F)F (stereo not drawn) | 6.6 nM
4 | CC(C)C(NC(=O)Cn1ccc(-c2ccccc2)c(NC(=O)OCc2ccccc2)c1=O)C(=O)C(F)(F)F (stereo not drawn) | 320 nM
5 | CC(C)C(NC(=O)Cn1c(-c2cccc(C(=O)O)c2)ccc(NC(=O)OCc2ccccc2)c1=O)C(=O)C(F)(F)F (stereo not drawn) | 32 nM
6 | CC(C)C(NC(=O)Cn1c(-c2cccnc2)ccc(NC(=O)OCc2ccccc2)c1=O)C(=O)C(F)(F)F (stereo not drawn) | 9.1 nM
7 | Cc1ccc(-c2ccc(NC(=O)OCc3ccccc3)c(=O)n2CC(=O)NC(C(=O)C(F)(F)F)C(C)C)cc1 (stereo not drawn) | 31 nM
8 | CC(C)C(NC(=O)Cn1c(-c2ccccc2Cl)ccc(NC(=O)OCc2ccccc2)c1=O)C(=O)C(F)(F)F (stereo not drawn) | 11 nM
